Measured values taken from paper PMC4833932, “Cytotoxicity and cell cycle arrest induced by andrographolide lead to programmed cell death of MDA-MB-231 breast cancer cell line” (Journal of Biomedical Science, 2016).
Several values for one entry are separate records, joined by “and”; a condition that tells them apart may be missing. Equal entries are not always repeated.

Legend:
[1] = tested on: MDA-MB-231; assay: In vitro cytotoxicity (MTT) assay; format: cell-based, human
Description: The effect of andrographolide on cell viability was measured by MTT assay following the method by Mosmann. Briefly, the cells (1 × 10^5 cells per ml) were seeded in a 96 well micro titer plate (100 μl per well) with replications. Treatment was conducted for 24 and 48 h with different concentrations (0, 5, 7.5, 15, 30, 45, 60, 75 and 100 μM) of andrographolide. After incubation, 20 μl of 5 mg/ml MTT stock solution was added to each well and incubated for 4 h at 37 °C. The obtained formazan crystals were solubilized with DMSO and the absorbance was measured at 570 nm using a microplate reader (SpectraMax M5, Molecular Devices, USA). Cell viability (%) has been shown as a ratio of absorbance (A570) in treated cells to absorbance in control cells (0.1 % DMSO) (A570). The IC50 was calculated as the concentration of sample needed to reduce 50 % of the absorbance in comparison to the DMSO-treated control. Percent cell viability was calculated following the equation: Cellviability%=A570Sample/A570ControlDMSO×100

[2] = tested on: MCF-7 cells; assay: Annexin V-FITC/PI flow cytometry (apoptosis); format: cell-based, human; settings: MCF-7, IC50 concentration, 48 h
Description: (§1) In order to examine phosphatidyl serine externalization from inner to the outer cell membrane, a characteristic feature of apoptotic cell death and to quantify the percentage of apoptotic cell death, cultured MDA-MB-231 cells (1 × 10^6) were treated with 50 % inhibitory concentration (30 μM) of andrographolide for 24 h, 36 h and 48 h. Cells were resuspended in 1X binding buffer, labelled with fluorescein isothiocyanate (FITC)-conjugated Annexin V (200 μg/ml) and PI (30 μg/ml), incubated for 15 min at room temperature in the dark and analyzed by flow cytometry using BD FACSVerse™ (Becton Dickinson, USA). Data were analyzed using FACSuite™ software. For each set, total of 10,000 events were recorded. Similar experiment was also performed using MCF-7 cells treated with andrographolide for 48 h.

[3] = tested on: MDA-MB-231 cells; assay: Annexin V-FITC/PI flow cytometry (apoptosis); format: cell-based, human; settings: 30 μM
Description: as §1

[4] = tested on: Apaf-1; assay: Western blot, protein expression in MDA-MB-231 cells; format: cell-based, human; settings: 30 μM, 48 h
Description: (§2) Cells from control regime and andrographolide treatment (30 μM, 48 h) were used for Western blot. After centrifugation, cell pellets were lysed in RIPA buffer containing protease and phosphatase inhibitors (Roche, Germany). Each cell lysate was used for protein assay with Bio-Rad protein assay kit (Bio-Rad, USA). A protein sample of 50 μg was electrophoresed in a 12 % SDS-PAGE. Proteins were electro-transferred from the gel onto a nitrocellulose membrane (Amersham Biosciences, UK). After incubating with blocking buffer containing 5 % nonfat milk for 1 h, the membranes were probed with the primary antibody specific for Bcl-xL (1:750 dilution), Bcl-2 (1:1000), Bax (1:1000), cytochrome c (1:800) and Apaf-1 (1:500) at 4 °C. Membrane was then washed thrice with TBST (Tris buffered saline having 0.1 % Tween-20, pH 7.5), exposed to horseradish peroxidase conjugated secondary antibody (1:2500) and was then kept at 25 °C for 1 h. The membrane was then finally washed thrice with TBST. The protein bands were visualized by incubating the membrane with diaminobenzidine/hydrogen peroxide (Sigma-Aldrich) for color reaction. β-Actin and COX IV were also detected as loading controls.

[5] = tested on: Bax; assay: as above; format: cell-based, human; settings: 30 μM, 48 h
Description: as §2

[6] = tested on: Bcl-2; assay: as above; format: cell-based, human; settings: 30 μM, 48 h
Description: as §2

[7] = tested on: Bcl-xL; assay: as above; format: cell-based, human; settings: 30 μM, 48 h
Description: as §2

[8] = tested on: caspase-9; assay: Caspase activity assay (fluorometric, LEHD-AFC) in MDA-MB-231 cells; format: cell-based, human; settings: 0-60 μM, 24 h
Description: MDA-MB-231 cells (1 × 10^5 cells per ml) were incubated with different concentrations of andrographolide (0, 15, 30, 45 and 60 μM) for 24 h and then centrifuged to detect caspase-3 and caspase-9 activation using caspase fluoremetric protease assay kit following manufacturer’s instructions. Briefly, cells were lysed in RIPA buffer supplemented with protease inhibitor cocktail and 10 μl lysate were diluted with 10 μl substrate buffer (1:1) containing 100 μM each of fluorogenic substrate, DEVD-AFC and LEHD-AFC for caspase-3 and caspase-9 respectively, and was then incubated for 90 min at 37 °C. Reactions were stopped using 0.2 mM sodium phosphate buffer (pH 7.5) and fluorescence was quantified by a spectrofluorometer (excitation, 405 nm; emission, 505 nm). Experiment was also performed using MCF-7 cells.

[9] = tested on: platelets; set-up: method as in PMID 21822619; dose or concentration left out as unconfirmed; settings: cited from earlier work

C=C1CC[C@@H]2[C@](C)(CO)[C@H](O)CC[C@@]2(C)[C@@H]1C/C=C1/C(=O)OC[C@H]1O [andrographolide]
IC50 ([1]; Homo sapiens, MDA-MB-231, 24 h): 52 µM | IC50 ([1]; Homo sapiens, MDA-MB-231, 48 h): 30 µM | IC50 ([1]; MDA-MB-231, 48 h): 30.3 µM | percentage of apoptotic cells [2]: 41.17% | early apoptotic cells (annexin V+ and PI-) ([3]; 24 h): 16.76 ± 0.51% | late apoptotic cells (annexin V+ and PI+) ([3]; 24 h): 32.2 ± 2.2% and 32% | early apoptotic cells (annexin V+ and PI-) ([3]; 36 h): 12.23 ± 0.29% | late apoptotic cells (annexin V+ and PI+) ([3]; 36 h): 60.06 ± 0.6% | early apoptotic cells (annexin V+ and PI-) ([3]; 48 h): 5.89 ± 0.67% | cell population in necrotic phase ([3]; all the treated conditions (24, 36, 48 h)): < 1% | Apaf-1 expression, increase [4]: 1.49 ± 0.17 fold | Bax expression, up-regulated [5]: 2.39 ± 0.45 fold | Bcl-2 expression, down regulated [6]: 1.96 ± 0.14 fold | Bcl-xL expression, down-regulated compared to control [7]: 1.47 ± 0.06 fold | activation of caspase-9 [8]: gradual dose-dependent activation | cytotoxic effect on platelets [9]: no cytotoxic effect
